From patent US10189863B2, “5,6-dihydro-4H-benzo[b]thieno-[2,3-d]azepine derivatives” (PULMOCIDE LIMITED, priority 2014, dated 2019)

Experiments:
hRSV/A/Long = test: RSV infection in cotton rats: virus titre in lung (plaque assay); type: in vivo, Sigmodon hispidus cotton rats; conditions: intranasal
Description: (§1) RSV Infection in Cotton Rats
(§2) Male Sigmodon hispidus cotton rats between 6 and 8 weeks of age were infected with hRSV/A/Long (ATCC, Manassas, Va.; 10^5 pfu) in a volume of 0.1 mL of sucrose stabilizing media. Test compounds were dissolved in 100% DMSO (at 3.3, 10, 33 and 100 mg/mL), then diluted at 1:10 in isotonic saline to achieve 10% DMSO in all treatments. Formulations were then sonicated to produce suspensions. The resulting suspensions were administered intranasally (50 μL) by pipette 4 hr before infection (on day 0), and then on days 1, 2 and 3 post infection. Four days after RSV challenge, the animals were euthanised and the lungs were removed. The left lobe was used for viral titration via plaque assay and the lingular lobe for RSV/A/Long NS-1 qRT-PCR and cytokine qRT-PCR.
The supernatant of lung homogenates were diluted 1:10 and 1:100 in Eagle (E)-MEM. Confluent HEp2 monolayers in 24-well plates were infected in duplicate (50 μL of sample per well) starting with undiluted (neat) samples followed by diluted homogenates. After incubation for 1 hr (37° C./5% CO2) wells were overlaid with 0.75% methylcellulose medium and plates replaced in the 37° C. incubator. After incubation (for 4 days), the overlay was removed, the cells fixed with 0.1% crystal violet stain (for 1 hr) and then rinsed and air-dried. Plaques were counted and viral titers were expressed as plaque forming units per gram (pfu·g^−1) of tissue.

[1] = system: RSV NS-1 gene transcripts; test: RSV infection in cotton rats: RSV NS-1 gene transcripts in lung (qRT-PCR); type: in vivo, Sigmodon hispidus cotton rats; conditions: for RSV NS1 gene transcript % inhibition / RSV NS1 gene transcript (/β-actin), Median: intranasal
Description: as §1, §2
Total RNA was also extracted from homogenized lung tissue (RNeasy purification kit; Qiagen) and a sample (1 μg) was used to prepare cDNA using QuantiTect Reverse Transcription Kit (Qiagen). For real-time PCR reactions (RSV NS-1 and RANTES genes) the QuantiFast SYBR® Green PCR Kit (Qiagen) was used in a final volume of 25 μL, with final primer concentrations of 0.5 μM. Amplifications were performed on a Bio-Rad iCycler for 1 cycle of 95° C. for 3 min, followed by 40 cycles of 95° C. for 10 sec, 60° C. for 10 sec, and 72° C. for 15 sec. Baseline cycles and cycle threshold (Ct) were calculated by the iQ5 software in the PCR Base Line Subtracted Curve Fit mode. The standard curves were developed using serially diluted cDNA sample most enriched in the transcript of interest (e.g., lungs from day 4 post-primary RSV infection). The Ct values were plotted against log10 cDNA dilution factor. These curves were used to convert the Ct values obtained for different samples to relative expression units which were then normalized to the level of β-actin mRNA (“housekeeping gene”) expressed in the corresponding sample. The mRNA levels were expressed as the geometric mean±SEM for all animals in a group.

[2] = Drug Conc 10 mg/mL, day 4, LOQ 2.3

In the case of Cc1cnc(N2CC3(CCOCC3)C2)c(C(=O)Nc2ccc(C(=O)N3CCc4cc(C(=O)Nc5c(C)cccc5F)sc4-c4ccccc43)cc2)c1 [Example 5, N-(2-Fluoro-6-methylphenyl)-6-(4-(5-methyl-2-(7-oxa-2-azaspiro[3.5]nonan-2-yl)nicotinamido)benzoyl)-5,6-dihydro-4H-benzo[b]thieno[2,3-d]azepine-2-carboxamide], the “Virus titre in lung, Geometric mean” value (hRSV/A/Long; Drug Conc 0.33 mg/mL, day 4) is reported as 4.7 log, PFU/lung, the “Virus titre in lung, Median” value (hRSV/A/Long; Drug Conc 0.33 mg/mL, day 4) is reported as 4.7 log, PFU/lung and the “Virus titre in lung, Median” value (hRSV/A/Long; Drug Conc 1.0 mg/mL, day 4) is reported as 4.5 log, PFU/lung. The “Virus titre in lung, Median” value (hRSV/A/Long; Drug Conc 3.3 mg/mL, day 4, LOQ 2.3) was <2.3^2 log, PFU/lung, the “Virus titre in lung, Geometric mean” value (hRSV/A/Long; [2]) was <2.3^2 log, PFU/lung and the “Virus titre in lung, Median” value (hRSV/A/Long; [2]) was <2.3^2 log, PFU/lung. The “Effect on RSV NS-1 gene transcripts (in words)” value [1] was “dose-dependent inhibition”, the “RSV NS1 gene transcript % inhibition” value ([1]; Drug Conc 0.33 mg/mL) was 55% and the “RSV NS1 gene transcript (/β-actin), Median” value ([1]; Drug Conc 0.33 mg/mL) was 2.0 /β-actin. The “RSV NS1 gene transcript % inhibition” value ([1]; Drug Conc 1.0 mg/mL) was 64%, the “RSV NS1 gene transcript (/β-actin), Median” value ([1]; Drug Conc 1.0 mg/mL) was 1.6 /β-actin and the “RSV NS1 gene transcript % inhibition” value ([1]; Drug Conc 3.3 mg/mL) was 77%. For the same compound, the “RSV NS1 gene transcript (/β-actin), Median” value ([1]; Drug Conc 3.3 mg/mL) was 1.0 /β-actin, the “RSV NS1 gene transcript % inhibition” value ([1]; Drug Conc 10 mg/mL) was 77% and the “RSV NS1 gene transcript (/β-actin), Median” value ([1]; Drug Conc 10 mg/mL) was 1.0 /β-actin.
